Assay results published in patent US20250092360A1, “METHODS AND COMPOSITIONS FOR GENERATING SOMATOSTATIN+ INTERNEURONS FROM HUMAN FOREBRAIN NEURAL PROGENITOR CELLS” (Trailhead Biosystems Inc., priority 2023, published 2025).
“Also recorded” adds a separate entry of the source.

Columns and labels:
[1] = tested on: human pluripotent stem cells; assay: HD-DoE stage 1, additional experiment: FEZF2 expression; assay type: cell-based; details: for impact on expression of FEZF2: dynamic profile, in words; for factor contribution, expression of FEZF2: positive impact, additional stage 1 experiment optimized for FEZF2
Procedure, shortened: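 Human pluripotent stem cells were exposed for three days to DoE-designed combinations of effectors in basal medium, including LDN193189, PD173074, BLU9931, purmorphamine, CHIR99021, XAV939, tofacitinib and GO6983 among others. Gene expression was measured by qPCR. Values were normalized and modelled by partial least squares regression against the effector design.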

[2] = tested on: forebrain-committed neural stem cells; assay: Factor criticality analysis, stage 2 recipe; assay type: cell-based, human; details: for expression level of PAX6 when the factor is removed / expression level of NKX2-2 when the factor is removed / expression level of NKX2-1 when the factor is removed: other three stage 2 factors present; for expression level of PAX6 when the factor is removed: 0 with all four factors; for expression level of NKX2-2 when the factor is removed: 100 with all four factors; for expression level of NKX2-1 when the factor is removed: 5000 with all four factors
Procedure: To assess the impact of the elimination of each validated factor, dynamic profile analysis was used and compared the expression level of genes of interest in absence of each finalized factor while others are present.
In the stage 2 recipe, each of the four finalized factors were removed while the other three factors remained present and expression levels of NKX2-1, PAX6 and NKX2-2 were assessed compared to presence of all four factors. Absence of PD0325901 reduced the levels of NKX2-1 and NKX2-2 while increasing PAX6 from 5000 to 3200, 100 to 0 and 0 to 5000, respectively. […] Removing XAV939 reduced the levels of NKX2-1 from 5000 to 3000, while increasing both PAX6 and NKX2-2 to 10000 and 200, respectively. Another observation was the interaction between XAV939 and Purmorphamine. In the absence of XAV939, the impact of Purmorphamine on NKX2-1 became negative and, as it is shown in interaction plot of FIG. 14, the level of NKX2-1 is higher when both factors are present.

[3] = tested on: forebrain-committed neural stem cells; assay: HD-DoE stage 2, 12-factor experiment: NKX2-1 expression; assay type: cell-based, human; details: model / dynamic profile, in words
Procedure, shortened: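 Forebrain-committed neural stem cells were treated for 3 days after stage 1 in a 12-factor high-dimensional DoE (LDN193189, BMP7, PD0325901, MK2206, A8301, XAV939, CHIR99021, purmorphamine, SANT-1, AGN193109, TTNPB, GSI-XX) to drive ventral forebrain identity. The read-out was NKX2-1 expression. Dynamic profile modelling also targeted minimal PAX6 and NKX2-2.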

[4] = tested on: human pluripotent stem cells; assay: HD-DoE stage 1, first 12-factor experiment: gene expression (qPCR) after 3-day treatment; assay type: cell-based; details: for impact on expression of OTX2: dynamic profile / model; for factor contribution, expression of SIX3 / factor contribution, expression of FEZF2: positive impact; for factor contribution, expression of SIX3: model optimized for maximal SIX3, 3-day treatment, qPCR; for factor contribution, expression of FEZF2: model optimized for maximum FEZF2 at 3576
Excerpt: This example utilizes a method of High-Dimensional Design of Experiments (HD-DoE), as previously described in Bukys et al. (2020) […] 23:101346. The method employs computerized design geometries to simultaneously test multiple process inputs and offers mathematical modeling of a deep effector/response space. The method allows for finding combinatorial signaling inputs that control a complex process, such as during cell differentiation. It allows testing of multiple plausible critical process parameters, as such parameters impact output responses, such as gene expression. Because gene expression provides hallmark features of the phenotype of, for example, a human cell, the method can be applied to identify, and understand, which signaling pathways control cell fate. In the current example, the HD-DOE method was applied with the intent to find conditions for induction of […] neural progenitor-expressed genes, directly from the pluripotent stem cell state. To develop the recipe for each stage, the impact of agonists and antagonists of multiple signaling pathways (herein called effectors) on the expression of two sets of 53 pre-selected genes, after a 3-day treatment, has been tested and modeled. These effectors are small molecules or proteins that are commonly used during stepwise differentiation of stem cells to specific fates. Choice of the effectors were based on current literature on neural induction in forebrain region of developing brain and differentiation of stem cells to neural progenitors. To test the effectors, experiments with at least 8 factors were designed that can assess the response of cells to 48 or more different combinations of effectors in a range of concentrations. To analyze the models, we focused on expression of genes involved in development and patterning of the anterior neuroectoderm and forebrain including OTX2 (Hoch et al. (2015) Cell Reports 12:482-494), SIX3 (Lagutin et al. (2003) Genes & Development 17:368-379) and FEZF2 (Zhang et al. (2014) Development 141:4794-[…]). At later stages we focused on dorsoventral patterning of telencephalon and gene expressed in ventral forebrain including NKX2-1 and absence of PAX6 which is a dorsal forebrain marker (Stoykova et al. (2000) J. Neurosci. 20:8042-8050). The impact of each effector on gene expression level is defined by a parameter called factor contribution that is calculated for each effector during the modeling. To identify the recipe for stage 1 of differentiation, 96 different combinations of effectors generated using Design-of-Experiments compression through D-optimality were robotically prepared. The effector combinations were prepared in a basal media and were subsequently added to the cells, which were then allowed to differentiate. Three days later RNA extraction was performed, and gene expression was obtained using quantitative PCR analysis. The data were normalized and modeled using partial least squares regression analysis to the effector design, resulting in the generation of gene-specific models, which after model tuning for maximal Q2 predictive power, provided explanation of the effectors ability to control the expression of individual genes, combinatorically, and individually. Solutions within the tested space could then be explored to address desirability. Optimizing for maximal expression of SIX3 at 3300 and FEZF2 1355 expression values led to robust solutions. This model was derived from testing 12 effectors including AGN193109, LDN193189, CHIR99021, XAV939, IGF2, Purmorphamine, 4-oxo-RA, TTNPB, SR11237, FGF8, PD0325901 and […]. […] The model was also optimized for maximum expression of FEZF2 separately at 3576 expression value to find any additional factors that can boost expression of forebrain genes. […] To find the set of factors that have the potential to optimize all 3 genes in this experiment, a new assessment was done through dynamic profile analysis with focus on maximal expression of OTX2, FEZF2 and SIX3.

[5] = dynamic profile analysis, in words

c1ccc2c(-c3cnn4cc(-c5ccc(N6CCNCC6)cc5)cnc34)ccnc2c1 [LDN193189]
impact on expression of FEZF2 [1]: positive impact | factor contribution, expression of FEZF2 [1]: 18 | expression level of PAX6 when the factor is removed [2]: below 0 | expression level of NKX2-2 when the factor is removed [2]: below 0 | expression level of NKX2-1 when the factor is removed [2]: did not significantly change | impact on expression of NKX2-1 [3]: increase | factor contribution, important input for high expression of SIX3 ([4]; FIG. 2 legend): 24.9 | impact on expression of OTX2 ([4]; in words): positive impact | factor contribution, expression of OTX2 ([4]; positive effector, model optimized for maximum OTX2 at 6348): 8 | factor contribution, expression of SIX3 [4]: 16 | factor contribution, expression of FEZF2 [4]: 25

O=C(NOC[C@H](O)CO)c1ccc(F)c(F)c1Nc1ccc(I)cc1F [PD0325901]
impact on expression of FEZF2 [1]: positive impact | factor contribution, expression of FEZF2 [1]: 15 | expression level of PAX6 when the factor is removed [2]: 5000 | expression level of NKX2-2 when the factor is removed [2]: 0 | expression level of NKX2-1 when the factor is removed [2]: 3200 | impact on expression of NKX2-1 [3]: increase; also recorded: Positive impact | impact on expression of OTX2 ([4]; in words): positive impact | factor contribution, expression of FEZF2 [4]: 10

c1ccc2c(Oc3nc(Nc4ccc(N5CCOCC5)cc4)c4ncn(C5CCCCC5)c4n3)cccc2c1 [Purmorphamine]
impact on expression of FEZF2 [1]: positive impact | factor contribution, expression of FEZF2 [1]: 11 | impact on NKX2-1 in the absence of XAV939 ([2]; interaction plot FIG. 14): negative | impact on expression of NKX2-1 [3]: increase | impact on expression of OTX2 ([4]; in words): negative effect | impact on expression of FEZF2 [4, 5]: positive impact | impact on expression of SIX3 [4, 5]: positive impact | factor contribution, expression of SIX3 [4]: 5 | factor contribution, expression of FEZF2 [4]: 7
